Values belong to the compound of their own block, whether it stands above or below them. Activity calls are given as the source filed them. The calls are words filed in the database; no cut-off is given here.
Assays:
[1] = target: T1, Peroxisome proliferator-activated receptor alpha (Homo sapiens, UniProt Q07869); experiment: Partial agonist activity at N-terminal Gal4-fused human PPARalpha LBD transfected in human HepG2 cells assessed as receptor transactivation incubated for 20 hrs by luciferase based luminometric assay; type: cell-based
T1 sequence (Q07869 whole entry): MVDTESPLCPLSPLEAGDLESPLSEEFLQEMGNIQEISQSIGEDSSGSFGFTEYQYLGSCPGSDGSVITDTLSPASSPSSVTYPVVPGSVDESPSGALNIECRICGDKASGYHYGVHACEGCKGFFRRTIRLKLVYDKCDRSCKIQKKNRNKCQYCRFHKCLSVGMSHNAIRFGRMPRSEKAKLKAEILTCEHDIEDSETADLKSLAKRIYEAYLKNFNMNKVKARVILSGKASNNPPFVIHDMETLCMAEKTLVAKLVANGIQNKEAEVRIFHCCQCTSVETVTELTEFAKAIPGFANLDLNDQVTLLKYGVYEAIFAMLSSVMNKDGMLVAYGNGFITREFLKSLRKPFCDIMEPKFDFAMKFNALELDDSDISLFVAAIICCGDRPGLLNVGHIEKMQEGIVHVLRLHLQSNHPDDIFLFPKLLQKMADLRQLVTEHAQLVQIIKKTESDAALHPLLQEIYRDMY

[2] = target: T2, Peroxisome proliferator-activated receptor gamma (Homo sapiens, UniProt P37231); experiment: Partial agonist activity at N-terminal Gal4-fused human PPARgamma LBD transfected in human HepG2 cells assessed as receptor transactivation incubated for 20 hrs by luciferase based luminometric assay; type: cell-based
T2 sequence (P37231 whole entry): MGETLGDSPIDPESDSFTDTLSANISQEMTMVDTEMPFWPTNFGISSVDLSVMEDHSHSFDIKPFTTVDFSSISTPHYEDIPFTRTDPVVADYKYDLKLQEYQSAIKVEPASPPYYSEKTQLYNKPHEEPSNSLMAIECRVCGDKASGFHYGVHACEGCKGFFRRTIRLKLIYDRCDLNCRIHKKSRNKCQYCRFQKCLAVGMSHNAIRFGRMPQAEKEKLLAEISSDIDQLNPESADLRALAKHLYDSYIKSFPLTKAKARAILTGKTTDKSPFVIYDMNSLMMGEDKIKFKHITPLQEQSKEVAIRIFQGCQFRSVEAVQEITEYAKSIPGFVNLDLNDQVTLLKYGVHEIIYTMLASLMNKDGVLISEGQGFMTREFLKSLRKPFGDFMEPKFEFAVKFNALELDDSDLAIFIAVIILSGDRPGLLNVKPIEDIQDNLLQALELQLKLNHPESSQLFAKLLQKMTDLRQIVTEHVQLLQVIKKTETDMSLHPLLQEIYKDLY

[3] = tested on: HepG2; experiment: Inhibition of lipid accumulation in oleic acid induced human HepG2 cells at 10 uM pretreated with oleic-acid for 24 hrs followed by compound addition and measured after 72 hrs by Oil Red O staining based analysis; type: functional, cell-based
[4] = tested on: C2C12; experiment: Inhibition of mitochondrial pyruvate carrier in mouse C2C12 cells assessed as effect on ATP production at 10 uM incubated for 24 hrs by Seahorse XF pro analyzer; type: functional, cell-based
[5] = tested on: C2C12; experiment: Inhibition of mitochondrial pyruvate carrier in mouse C2C12 cells assessed as increase in OCR/ECAR ratio at 10 uM incubated for 24 hrs by Seahorse XF pro analyzer; type: functional, cell-based
[6] = tested on: C2C12; experiment: Inhibition of mitochondrial pyruvate carrier in mouse C2C12 cells assessed as increase of extracellular acidification rate at 10 uM incubated for 24 hrs by Seahorse XF pro analyzer; type: functional, cell-based
[7] = tested on: C2C12; experiment: Inhibition of mitochondrial pyruvate carrier in mouse C2C12 cells assessed as effect on oxygen consumption rate at 10 uM incubated for 24 hrs by Seahorse XF pro analyzer; type: functional, cell-based
[8] = tested on: Mus musculus; experiment: Antihyperglycemic activity in STZ-induced diabetic Swiss albino mouse model assessed as triglyceride level at 30 mg/kg, po by biochemical analysis (reference value: 139.33 +/- 0.88 mg/dl); type: functional
[9] = tested on: Mus musculus; experiment: Antihyperglycemic activity in STZ-induced diabetic Swiss albino mouse model assessed as fasting blood glucose at 30 mg/kg, po measured after 5 days by glucose meter analysis (reference value: […] +/- 63.77 mg/dl); type: functional; settings: time 5 day
[10] = tested on: Mus musculus; experiment: Antihyperglycemic activity in STZ-induced diabetic Swiss albino mouse model assessed as fasting blood glucose at 30 mg/kg, po and measured immediately by glucose meter analysis (reference value: 365 +/-54.25 mg/dl); type: functional
[11] = tested on: Mus musculus; experiment: Antihyperglycemic activity in STZ-induced diabetic Swiss albino mouse model assessed as very low-density lipoprotein cholesterol level at 30 mg/kg, po by biochemical analysis (reference value: 27.77 +/- 0.15 mg/dl); type: functional
[12] = tested on: Mus musculus; experiment: Antihyperglycemic activity in STZ-induced diabetic Swiss albino mouse model assessed as fasting blood glucose at 30 mg/kg, po measured after 15 days by glucose meter analysis (reference value: 452.6 +/-48.94 mg/dl); type: functional; settings: time 15 day
[13] = tested on: Mus musculus; experiment: Antihyperglycemic activity in STZ-induced diabetic Swiss albino mouse model assessed as low-density lipoprotein cholesterol level at 30 mg/kg, po by biochemical analysis (reference value: 113.33 +/- 0.35 mg/dl); type: functional
[14] = tested on: Mus musculus; experiment: Antihyperglycemic activity in STZ-induced diabetic Swiss albino mouse model assessed as high-density lipoprotein cholesterol level at 30 mg/kg, po by biochemical analysis (reference value: 43.33 +/-[…]); type: functional
[15] = tested on: Mus musculus; experiment: Antihyperglycemic activity in STZ-induced diabetic Swiss albino mouse model assessed as fasting blood glucose at 30 mg/kg, po measured after 10 days by glucose meter analysis (reference value: 435.2 +/-46.89 mg/dl); type: functional; settings: time 10 day
[16] = tested on: Mus musculus; experiment: Antihyperglycemic activity in STZ-induced diabetic Swiss albino mouse model assessed as total cholesterol level at 30 mg/kg, po by biochemical analysis (reference value: 184.33 +/- […]); type: functional
[17] = target: T3, Peroxisome proliferator-activated receptor delta (Homo sapiens, UniProt Q03181); experiment: Partial agonist activity at N-terminal Gal4-fused human PPARdelta LBD transfected in human HepG2 cells assessed as receptor transactivation incubated for 20 hrs by luciferase based luminometric assay; type: cell-based
T3 sequence (Q03181 whole entry): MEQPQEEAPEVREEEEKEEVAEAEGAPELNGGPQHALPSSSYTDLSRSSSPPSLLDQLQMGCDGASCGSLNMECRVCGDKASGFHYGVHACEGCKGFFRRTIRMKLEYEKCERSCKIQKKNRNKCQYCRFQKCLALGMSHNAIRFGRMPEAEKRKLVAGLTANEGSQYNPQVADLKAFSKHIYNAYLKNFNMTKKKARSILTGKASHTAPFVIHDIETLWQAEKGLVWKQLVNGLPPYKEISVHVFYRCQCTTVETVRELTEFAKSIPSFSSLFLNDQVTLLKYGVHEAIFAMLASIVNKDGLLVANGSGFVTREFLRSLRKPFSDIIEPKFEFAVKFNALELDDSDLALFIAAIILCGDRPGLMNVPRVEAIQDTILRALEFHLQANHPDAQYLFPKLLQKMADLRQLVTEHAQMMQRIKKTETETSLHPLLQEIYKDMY

SMILES: CC[C@H](Oc1ccc(-c2cccc3ccccc23)cc1)C(=O)O.NC1CCCCC1
- EC50 [1]: 183 nM
- EC50 [2]: 11000 nM

SMILES: CN(CCOc1ccc(CC2SC(=O)NC2=O)cc1)c1ccccn1 (stereo not drawn)
- inhibition [3]: Active
- inhibition [4]: inactive
- inhibition [5]: inactive
- inhibition [6]: inactive
- inhibition [7]: inactive

SMILES: CCc1ccc(CCOc2ccc(CC3SC(=O)NC3=O)cc2)nc1 (stereo not drawn) [PIOGLITAZONE]
- Activity [8]: 98.33 mg/dL
- Activity [9]: 351 mg/dL
- Activity [10]: 441.2 mg/dL
- Activity [11]: 19.33 mg/dL
- Activity [12]: 224.2 mg/dL
- Activity [13]: 20.5 mg/dL
- Activity [14]: 19.67 mg/dL
- Activity [15]: 248 mg/dL
- Activity [16]: 88.67 mg/dL

SMILES: CCCc1c(OCCCOc2ccc(OCC(=O)O)cc2)ccc(C(C)=O)c1O
- EC50 [17]: 1600 nM

Other lines, results leading:

- EC50 [1]: 1420 nM
- EC50 [2]: 7300 nM
SMILES: CC[C@@H](Oc1ccc(-c2cccc3ccccc23)cc1)C(=O)O.NC1CCCCC1

- EC50 [1]: 460 nM
- EC50 [2]: 10000 nM
SMILES: CCC(Oc1ccc(-c2cccc3ccccc23)cc1)C(=O)O (racemic)

- EC50 [1]: 2300 nM
SMILES: C[C@@H](Oc1ccc(-c2cccc3ccccc23)cc1)C(=O)O

- EC50 [1]: 1800 nM
SMILES: C[C@H](Oc1ccc(-c2cccc3ccccc23)cc1)C(=O)O

Source: ChEMBL document CHEMBL5608169, “A chemical modification of a peroxisome proliferator-activated receptor pan agonist produced a shift to a new dual alpha/gamma partial agonist endowed with mitochondrial pyruvate carrier inhibition and antidiabetic properties” (Eur J Med Chem, 2024)
